Read-outs that look alike come from different tables or passages of the source.
Key:
[1] = Membrane permeability study (Caco-2); type: in vitro ADME; details: human; for efflux ratio at 90 min, 10 µM: Caco-2, pH 7.4; for Papp A→B at 90 min, 10 µM / Papp B→A at 90 min, 10 µM: pH 7.4, Caco-2, 10 μM; for Papp A→B at 90 min, 10 µM: apical to basolateral; for Papp B→A at 90 min, 10 µM: basolateral to apical
Procedure: Caco-2 cells were purchased from the […] (Rockville, MD). The cell culture medium was modified Eagle's medium (MEM) containing 10% inactivated fetal bovine serum and 1% non-essential amino acids.
The cells were incubated for 21-28 days after inoculation for transport experiments and the apparent permeability (Papp) of Lucifer Yellow was used to characterize and verify the compactness of the cell monolayer. […] A 10 μM working solution of the compound to be tested was added to the apical side and basolateral side of Caco-2 and incubated at 37° C. for 90 min. After the incubation, dilute the samples on the apical side and basolateral side, and the concentrations of compounds on the apical and basolateral sides were detected by LC-MS/MS, and the concentrations of the compounds were quantified by standard curve.

Wee1 protein = molecular target: T1, Wee1 protein (Homo sapiens, UniProt P30291); assay: Binding of compound to Wee1 protein and Tracer 178 by TR-FRET (Wee1 kinase inhibitory activity); details: 15 nM WEE1, 50 nM Tracer 178, read-out: IC50 (inhibitory activity against Wee1 kinase)
T1 construct: purchased Thermo Fisher PR7373A
Procedure: First, solutions of the compounds in different concentration gradients were prepared. The compounds were dissolved in DMSO and the compounds were diluted 4 folds with a total of 10 dose points and 2 parallel replicates for each concentration.
The IC50 for inhibition of enzyme activity by the compounds was then calculated using GraphPad Prism 6 and fitted with a log (inhibitor) vs. response-Variable slope mode. The fitting equation was: Y=Bottom+(Top−Bottom)/(1+10^((Log IC50−X)*HillSlope)), wherein Y represents the percentage of residual enzyme activity known and X represents the known concentration of compound after the logarithm.

MIA PaCa2 cells = assay: Anti-proliferative effect on MIA PaCa2 cells by Cell Titer-Glo; type: cell-based; details: Homo sapiens, MIA PaCa-2, 72 h, 3 days, read-out: MIA PaCa 2 (IC50, inhibition of proliferation in vitro)
Procedure: (§1) Test Example 2: Evaluation of Cell Proliferation Inhibitory Activity
2. Evaluation of the Anti-Proliferative Effect of Compounds on MIA PaCa2 Cells by the Cell Titer-Glo Method
(§2) Compound solutions of different concentration gradients were prepared. […] The cell growth group without compound was used as a positive control (maximum signal control) and the medium was used as a negative control (minimum signal control), while ensuring that the final level of DMSO in each reaction well was 0.2%. After removing the medium from the 384-well plate, 25 ul of the configured compound at different concentrations was transferred into the well plate and the compound and cells were incubated in the cell incubator at 37° C. with 5% CO2 for 3 days.
(§3) The 384-well plates were removed from the cell incubator and allowed to equilibrate for 1 h to room temperature. 25 ul of Cell Titer-Glo assay was added to each well, lysed on a shaker for 2 min and then read out (Luminescence) using a BMG PHERAStar after 10 min incubation. Calculate the inhibition rate from the luminescence signal: first calculate the average of the positive control (maximum signal control) and the negative control (minimum signal control).
(§4) was used to calculate the rate of inhibition of the cells by different concentrations of the compounds. The IC50 of the compound on cell activity inhibition was calculated by fitting a log(inhibitor) vs. response-Variable slope model to GraphPad Prism 6. The fitted equation was: Y=Bottom+(Top-Bottom)/(1+10^((Log IC50−X)*HillSlope)), wherein Y represents the rate of inhibition and X represents the concentration of the known compound after Log.
(§5) The results of the in vitro anti-cell proliferation assays of H1299 and MIA Paca-2 for the example compounds according to the method described above are shown in Table 2, wherein the IC50 of each compound was determined and classified according to the description as follows: […]

[2] = Plasma protein binding (PPB), equilibrium dialysis; type: in vitro ADME; details: mouse plasma, 5 h dialysis
Excerpt: 1. Experimental Procedure
2. Data Processing and Parameter Calculation

[3] = Pharmacokinetics on single dose in mice (intravenous and oral); type: in vivo, ICR mice; details: male, ICR, mouse, plasma, Oral, 10 mg/kg
Procedure: 1. Experimental Aim: The present experiment aimed to obtain the pharmacokinetic profile of the subject compounds in ICR mice (both intravenous and oral) 3.1.2 Test System Species: SPF grade male ICR mice Body weight/weekly age: about 30 g 4. […] 4.2 Subjects Given (Route) Intravenous: 1 mg/kg in a volume of 5 mL/kg Gavage: 10 mg/kg in a volume of 10 mL/kg Ultrasound for 5 min before administration 4.3 Subject Preparation (Concentration) Intravenous: 0.2 mg/mL Gavage: 1 mg/mL Fast overnight before administration and feed four hours after administration. […] The blood samples were stored in a refrigerator at or below −20° C. for LC-MS/MS analysis. […] LC-MS/MS Analytical Detection Used 5. Data Processing The samples were detected for drug concentration at each time point by LC-MS/MS. Pharmacokinetic parameters terminal elimination half-life (t1/2), area under the curve (AUC), apparent volume of distribution (Vd), clearance (CL), mean residence time (MRT), and Cmax were calculated using the non-compartmental model of Phoenix WinNonlin 5.2. Bioavailability (F %) was directly from serum concentration results. Mean±standard deviation (X±SD) was used for blood concentration and pharmacokinetic parameters, etc. Specific testing and analytical methods were specified in the form of protocol revisions.

H1299 cells = assay: Anti-proliferative effect on H1299 cells by Cell Titer-Glo; type: cell-based; details: 3 days
Procedure: as §1
1. Evaluation of the Anti-Proliferative Effect of Compounds on H1299 Cells by the Cell Titer-Glo Method
as §2
as §3, with “1h” for “1 h”
as §4, with “Y=Bottom+(Top−Bottom)/(1+10^((Log” for “Y=Bottom+(Top-Bottom)/(1+10^((Log”, “where” for “wherein”
as §5

[4] = Liver microsomes in vitro stability (human); type: in vitro ADME; details: read-out: T1/2/min (H)
Procedure: (§6) 1. Preparation of Working Solution:
(§7) Microsomes were taken out from the −80° C. refrigerator, rapidly melted in a 37° C. water bath and placed on ice until ready to use. The test article was diluted with DMSO to prepare a 10 mM stock solution, and then diluted with acetonitrile to a 0.5 mM secondary stock solution. […] NADPH was diluted with Buffer C to a working solution of 6 mM for the starter solution. An acetonitrile solution containing an internal standard was prepared as the precipitant, and Verapamil-HCl was chosen as the internal standard at a concentration of 4 ng/ml.
(§8) 2. Experimental Procedure:
(§9) A round-bottom well plate was taken, noted as the reaction plate, and the prepared working solution for each compound was dispensed into the well plate according to the number of replicates and time points (0 h samples were also added to the reaction plate), 30 μL/well; the plate was incubated at 37° C. for 10 min. A separate plate with pointed bottom wells, noted as a precipitation plate, was added with 135 μL precipitant per well; 0 h samples were transferred to the plate after 10 min incubation and 15 μL of starter solution was added; the plate was placed on ice before centrifugation.
(§10) The diluted starter solution was added in sufficient quantity to the dispensing plate to facilitate the multichannel pipette aspiration operation.
(§11) The reaction was carried out on a warm incubation shaker and 15 μL of starter solution/sample is added to the plate using a multichannel pipette. The reaction was mixed with a slight shake to initiate the reaction, which was accurately timed and recorded using a timer. In general, samples with shorter reaction times are initiated late and vice versa early, allowing sufficient time for multiple plate manipulation to terminate the reaction. For example, as for the four experiments of 5, 15, 30, and 60 min, the 60 min experiment was started first, and the 5 min experiment was started later, so as to leave sufficient time for the 5 min group.
(§12) After the reaction time had elapsed, all the solution in the plate was aspirated using the multichannel pipette and added to the precipitation plate to terminate the reaction at that point in time. After all reactions had been terminated, the plates were shaken for ten minutes on a plate shaker at 600 rpm to precipitate the protein. The plate was centrifuged at 4° C. for 15 minutes at maximum rpm. 80 μL of supernatant was taken, 320 μL of pure water was added and mixed for LC-MS analysis.

[5] = Liver microsomes in vitro stability (mouse); type: in vitro ADME; details: read-out: T1/2/min
Procedure: as §6, §7, §8, §9, §10, §11, §12

[6] = Homo sapiens, NCI-H1299, 72 h, read-out: H1299 (IC50, inhibition of proliferation in vitro)

T1 sequence (P30291 whole entry): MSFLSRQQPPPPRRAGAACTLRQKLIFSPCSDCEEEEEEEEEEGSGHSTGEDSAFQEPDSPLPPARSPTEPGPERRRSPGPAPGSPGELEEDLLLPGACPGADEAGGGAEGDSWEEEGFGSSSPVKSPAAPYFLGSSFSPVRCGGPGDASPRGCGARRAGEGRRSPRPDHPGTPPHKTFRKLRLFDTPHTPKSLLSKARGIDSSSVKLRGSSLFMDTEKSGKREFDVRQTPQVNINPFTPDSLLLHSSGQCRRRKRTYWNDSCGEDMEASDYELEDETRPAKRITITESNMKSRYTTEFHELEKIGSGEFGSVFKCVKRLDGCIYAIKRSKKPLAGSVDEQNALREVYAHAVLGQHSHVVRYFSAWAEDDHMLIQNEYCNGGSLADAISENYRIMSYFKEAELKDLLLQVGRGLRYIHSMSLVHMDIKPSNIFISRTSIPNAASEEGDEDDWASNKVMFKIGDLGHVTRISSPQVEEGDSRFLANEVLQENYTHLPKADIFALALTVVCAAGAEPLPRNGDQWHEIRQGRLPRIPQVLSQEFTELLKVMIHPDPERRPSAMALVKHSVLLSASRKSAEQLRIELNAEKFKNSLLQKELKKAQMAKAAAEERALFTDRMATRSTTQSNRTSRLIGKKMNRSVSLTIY

efflux ratio at 90 min, 10 µM [1] | Papp A→B at 90 min, 10 µM [1] [nm/s] | Papp B→A at 90 min, 10 µM [1] [nm/s] | Structure (SMILES) | IC50 (Wee1 protein) [µM] | IC50 (MIA PaCa2 cells) [µM] | fraction unbound at 5 h, 1 µM [2] | AUC(0-t) [3] [µg·h/mL] | Cmax [3] [µg/mL] | MRT [3] [min] | half-life [3] [min] | IC50 (H1299 cells; [6]) [µM] | half-life at 1 µM [4] [min] | half-life at 1 µM [5] [min] | IC50 (H1299 cells; listed as Compound53, read-out: H1299 (IC50, inhibition of proliferation in vitro)) [µM]
 |  |  | C=CCn1c(=O)c2cnc(Nc3ccc(OC4CN5CCC4CC5)cc3)nc2n1-c1cccc(C(C)(C)O)n1 (stereo not drawn) [Compound 4] | < 0.005 |  |  |  |  |  |  | 1 to 2 | 22.2 | 10.1 | 
 |  |  | C=CCn1c(=O)c2cnc(Nc3ccc(N4CC5CC(C4)N5C4CCC4)cc3)nc2n1-c1cccc(C(C)(C)O)n1 [Compound 49] | < 0.005 | 0.1 to 1 | 0.042 | 0.534 | 0.388 | 68.4 | 61.8 | 0.1 to 1 |  |  | 
 |  |  | C=CCn1c(=O)c2cnc(Nc3ccc(OCC)c(CC4C(=O)C5CCN4CC5)c3)nc2n1-c1cccc(N=S(C)(C)=O)n1 (stereo not drawn) [Compound 9] | < 0.005 |  |  |  |  |  |  | 1 to 2 | 2.82 | 0.78 | 
 |  |  | C=CCn1c(=O)c2cnc(Nc3ccc(CC4C(=O)C5CCN4CC5)cc3)nc2n1-c1cccc(N=S(C)(C)=O)n1 (stereo not drawn) [Compound 6] | < 0.005 |  |  |  |  |  |  | 0.1 to 1 | 5.16 | 5.72 | 
 |  |  | C=CCn1c(=O)c2cnc(Nc3cccc(CC4C(=O)C5CCN4CC5)c3)nc2n1-c1cccc(N=S(C)(C)=O)n1 (stereo not drawn) [Compound 10] | < 0.005 |  |  |  |  |  |  | 0.1 to 1 | 8.31 | 1.34 | 
 |  |  | C=CCn1c(=O)c2cnc(Nc3ccc(N4CC5CC(C4)N5C)cc3)nc2n1-c1ccc2ccn(CC)c2n1 [Compound 51] | < 0.005 | 0.1 to 1 | 0.03 | 0.43 | 0.29 | 70.8 | 57 | 0.1 to 1 | 19 | 14.7 | 
 |  |  | C=CCn1c(=O)c2cnc(Nc3ccc(N4CC5CC(C4)N5C)cc3)nc2n1-c1ccc2cnn(CC)c2n1 [Compound 53] | 0.005 to 0.01 | 2 to 5 | 0.035 | 1.64 | 0.8 | 115 | 113 |  |  |  | 0.1 to 1
11.8 | 28.4 | 336 | C=CCn1c(=O)c2cnc(Nc3ccc(N4C[C@@H]5C[C@H]4CN5C)c(C)c3)nc2n1-c1cccc(C(C)(C)O)n1 [Compound 12] | 0.005 to 0.01 | 0.1 to 1 |  |  |  |  |  | 0.1 to 1 |  | 31.5 | 
0.83 | 91.2 | 75.6 | C=CCn1c(=O)c2cnc(Nc3ccc(N4CC5CC(CN(CC(F)(F)F)C5)C4)cc3)nc2n1-c1cccc(C(C)(C)O)n1 [Compound 33] | 0.01 to 0.1 | 2 to 5 |  |  |  |  |  | 1 to 2 |  |  | 
 |  |  | C=CCn1c(=O)c2cnc(Nc3ccc(N4CCOC5(CCCN(C)C5)C4)cc3)nc2n1-c1cccc(C(C)(C)O)n1 (stereo not drawn) [Compound 46] | 0.01 to 0.1 | 0.1 to 1 | 0.179 |  |  |  |  | 0.1 to 1 | 16.8 | 13.6 | 

Structure (SMILES) | efflux ratio at 90 min, 10 µM [1] | Papp A→B at 90 min, 10 µM [1] [nm/s] | Papp B→A at 90 min, 10 µM [1] [nm/s] | IC50 (Wee1 protein) [µM] | IC50 (MIA PaCa2 cells) [µM] | fraction unbound at 5 h, 1 µM [2] | AUC(0-t) [3] [µg·h/mL] | Cmax [3] [µg/mL] | MRT [3] [min] | half-life [3] [min] | IC50 (H1299 cells; [6]) [µM] | half-life at 1 µM [4] [min] | half-life at 1 µM [5] [min] | IC50 (H1299 cells; listed as Compound53, read-out: H1299 (IC50, inhibition of proliferation in vitro)) [µM]
C=CCn1c(=O)c2cnc(Nc3ccc(N4CC5CC(C4)N5CCF)cc3)nc2n1-c1cccc(C(C)(C)O)n1 [Compound 48] | 2.65 | 133 | 353 | < 0.005 | 0.1 to 1 | 0.031 | 0.482 | 0.47 | 54 | 38.4 | 0.1 to 1 |  |  | 

From US20250034151A1, “WEE1 INHIBITOR, PREPARATION THEREFOR, AND USE THEREOF” (JIANGSU TASLY DIYI PHARMACEUTICAL CO., LTD., priority 2022, published 2025)
